From publication PMC10221320
Positions of bridges follow the written chain, without caps; N, C: chain ends. No end group written: not given here.

Assays:
[1] = tested on: rat ASIC1a (rASIC1a); design: method as in PMID 29684594, PMID 32326130; conditions: ref [40],[41]; read-out: IC50, inhibition of rASIC1a; cited from earlier work
[2] = tested on: CD-1 mice; test: Open field test; format: in vivo, mouse; conditions: for N (c.z.), number of visits to central zone / N (def), number of bowel movements / N (peeps), number of peeps into minks / N (racks), vertical activity / N (s.p.), number of visits to side platform / S (act), distance traveled during activity / S, distance traveled / T (act), activity time / T (b.z.), staying on the border zone / T (c.z.), time spent on the central zone / T (e.c.z.), time of exit from the central zone / T (pass), passivity time / V(act), average movement speed during activity / V, average travel speed: mean ± SD
Method: (§1) The animal studies were performed under the European Commission’s legislation (Directives 86/609/EEC, 2010/63/EU), the National Standard of the Russian Federation “Good Laboratory Practice” (GOST P 53434-2009, Moscow, Russia), and Committee on Ethics of Laboratory Animal Handling № 05/21, 20 September 2021 and 08/21, 30 December 2021 protocols (PIBOC FEB RAS). Adult female CD-1 mice weighing 25 ± 2 g were subjected to a 12 h light–dark cycle at room temperature and with ad libitum access to food and water. There were seven or eight individuals in each group.
The animal activity and anxiety-related and exploratory behaviors were estimated at the open field facility (OpenScience, Krasnogorsk, Russia). Three groups of animals were treated with peptides at doses of 0.01, 0.1 and 1 mg/kg (intravenously) 30 min before testing. The control group was injected with an identical volume (50 µL) of saline. The animals were placed in the center of the lightened arena, and the recording lasted 3 min. Using the software “Minotaur” (LLC “Neurobiotics”, Zelenograd, Russia), 14 parameters were estimated: time (T) of activity (act); passivity (pass); spent on the central zone (c.z.), staying on the border zone (b.z.); exit from the central zone (e.c.z.); average travel speed (V, m/s); average movement speed during activity (V(act)); distance traveled (S, m); distance traveled during activity (S (act)); number (N) of visits to central zone (c.z.); visits to side platform (s.p.); vertical activity (racks); peeps into minks (peeps); and bowel movements (def).

[3] = tested on: rat ASIC3 (rASIC3); test: Two-electrode voltage clamp, rASIC3 in Xenopus laevis oocytes; format: cell-based; conditions: 1 μM; pH drop from 7.4 to 5.5; −50 mV; n = 5; recombinant peptide
[4] = tested on: rat ASIC3 (rASIC3); conditions: ref [41]; read-out: EC50, potentiation of rASIC3 current; cited from earlier work
[5] = tested on: CD-1 mice; test: Carrageenan-induced paw edema; format: in vivo, mouse
Method: as §1
Three groups of animals were treated with peptides at doses of 0.01, 0.1 and 1 mg/kg (intravenously) 30 min before the induction of inflammation. The control animal group received an identical volume of saline. The positive control group received diclofenac (Hemofarm A.D., Vršac, Serbia) at a dose of 1 mg/kg. The edema was induced by a 20 µL injection of 1.5% solution of λ-carrageenan (Sigma Aldrich, St. Louis, MO, USA) in the hind paw pad. The resulting edema was measured after 1, 2, 4 and 24 h using a plethysmometer (Ugo Basile, Gemonio (VA), Italy). The anti-inflammatory threshold was estimated as a decrease in the paw volume and volume growth index (%), calculated using the formula: Volume Growth Index (%) = [(VC − Vi)/Vi] × 100, (1), where VC is the volume of the paw after the introduction of carrageenan and Vi is the volume of the paw before the introduction of carrageenan.

[6] = 0.01 mg/kg i.v. 30 min before testing, n = 7–8
[7] = 0.1 mg/kg i.v. 30 min before testing, n = 7–8
[8] = 1 mg/kg i.v. 30 min before testing, n = 7–8

In the case of “GTPCDCYGYTGVYWFMLSRCPSGYGYNLSCHYFMGICCVKR (disulfide 4-37, 6-30, 20-38 (inferred)) [Hmg 1b-4]”, the IC50 [1] is given as 1250 nM, the “N (c.z.), number of visits to central zone” value (“N (c.z.), number of visits” for short) [2, 6] is given as 12 ± 0.8 and the “N (def), number of bowel movements” value [2, 6] is given as 1.2 ± 0.2. The “N (peeps), number of peeps into minks” value [2, 6] was 8.0 ± 0.5, the “N (racks), vertical activity” value [2, 6] was 27.2 ± 1.9 and the “N (s.p.), number of visits to side platform” value (shortened to “N (s.p.), number of visits”) [2, 6] was 13.3 ± 1.1. For the same sequence, the “S (act), distance traveled during activity” value (from here on “S (act)”) [2, 6] was 25.0 ± 2.4 m, the “S, distance traveled” value [2, 6] was 25.0 ± 1.8 m and the “T (act), activity time” value [2, 6] was 113.5 ± 9.5 s. The “T (b.z.), staying on the border zone” value [2, 6] was 145.4 ± 5.2 s, the “T (c.z.), time spent on the central zone” value [2, 6] was 34.2 ± 2.8 s and the “T (e.c.z.), time of exit from the central zone” value (from here on “T (e.c.z.), time of exit”) [2, 6] was 6.5 ± 3.1 s. The “T (pass), passivity time” value [2, 6] was 64.2 ± 7.4 s, the “V(act), average movement speed during activity” value [2, 6] was 0.22 ± 0.02 m/s and the “V, average travel speed” value [2, 6] was 0.14 ± 0.02 m/s. The “N (c.z.), number of visits” value [2, 7] was 21.2 ± 6.1, the “N (def), number of bowel movements” value [2, 7] was 0 and the “N (peeps), number of peeps into minks” value [2, 7] was 7.8 ± 2.1. For the same sequence, the “N (racks), vertical activity” value [2, 7] was 37.0 ± 7.8, the “N (s.p.), number of visits” value [2, 7] was 20.1 ± 6.4 and the “S (act)” value [2, 7] was 24.2 ± 5.1 m. The “S, distance traveled” value [2, 7] was 24.2 ± 5.1 m, the “T (b.z.), staying on the border zone” value [2, 7] was 127.5 ± 10.0 s and the “T (c.z.), time spent on the central zone” value [2, 7] was 53.8 ± 10.3 s. For the same sequence, the “T (e.c.z.), time of exit” value [2, 7] was 6.1 ± 3.3 s, the “T (pass), passivity time” value [2, 7] was 55.1 ± 11.1 s and the “V(act), average movement speed during activity” value [2, 7] was 0.22 ± 0.03 m/s. For the same sequence, the “V, average travel speed” value [2, 7] was 0.14 ± 0.03 m/s, the “T (act), activity time” value ([2]; 0.1 mg/kg i.v. 30 min before testing, n = 7–8 (SD on next line: Hmg 1b-2 10.7, Hmg 1b-4 13.1)) was 122.3 s and the “time spent in the center of the arena” value ([2]; 0.1 mg/kg i.v., vs control) was “increased the time the animals spent in the center of the arena”. The “N (c.z.), number of visits” value [2, 8] was 16.8 ± 2.7, the “N (def), number of bowel movements” value [2, 8] was 0.5 ± 0.7 and the “N (peeps), number of peeps into minks” value [2, 8] was 9.0 ± 1.5. The “N (racks), vertical activity” value [2, 8] was 37.4 ± 3.9, the “N (s.p.), number of visits” value [2, 8] was 16.9 ± 2.8 and the “S (act)” value [2, 8] was 24.6 ± 7.5 m. For the same sequence, the “S, distance traveled” value [2, 8] was 24.6 ± 2.3 m, the “T (b.z.), staying on the border zone” value [2, 8] was 143.8 ± 8.2 s and the “T (c.z.), time spent on the central zone” value [2, 8] was 34.9 ± 5.9 s. The “T (e.c.z.), time of exit” value [2, 8] was 6.4 ± 2.4 s, the “T (pass), passivity time” value [2, 8] was 56.8 ± 9.1 s and the “V(act), average movement speed during activity” value [2, 8] was 0.21 ± 0.02 m/s. For the same sequence, the “V, average travel speed” value [2, 8] was 0.14 ± 0.01 m/s, the “T (act), activity time” value ([2]; 1 mg/kg i.v. 30 min before testing, n = 7–8 (SD on next line: Hmg 1b-4 10.4)) was 119.9 s and the “number of vertical stances” value ([2]; 0.1 and 1 mg/kg i.v., vs control) was “increased”. The “conclusion on CNS effect” value ([2]; i.v.) was “anxiolytic effect”, the “effect on distance travelled and speed of movement” value ([2]; i.v.) was “did not affect these options” and the “exploration activity (number of peeps into the holes)” value ([2]; i.v.) was “significantly increased the exploration activity of mice”. The “most effective dose on peeps into the holes” value ([2]; i.v.) was 1 mg/kg, the “percentage of the activity time” value ([2]; i.v., control group 50%, significant increase) was 70% and the “potentiation of rASIC3 currents” value [3] was 29%. The EC50 [4] was 1530 ± 70 nM, the “reduction of volume of paw edema vs control” value ([5]; 0.01 mg/kg i.v., only after 24 h) was 1.5 times and the “paw volume relative to original values” ([5]; 0.1 mg/kg i.v., 24 h) was “reduced the volume of the paw almost to the original values”. For the same sequence, the “reduction of paw edema” value ([5]; 0.1 mg/kg i.v., after 24 h) was ~4 times, the “reduction of paw edema” value ([5]; 1 mg/kg i.v., after 24 h) was “approximately 2 times” and the anti-inflammatory effect ([5]; 0.1 and 1 mg/kg i.v., after 2, 4 and 24 h) was “statistically significant anti-inflammatory effect”. For the same sequence, the “effect compared with diclofenac” value ([5]; 1 and 0.1 mg/kg i.v. at 24 h) was “exceeded the effect of diclofenac”, the “reduction of paw edema” value ([5]; 1 and 0.1 mg/kg i.v., after 4 h) was 1.5 times and the “paw volume and growth index of edema” value ([5]; i.v., at 1 and 2 h) was “decreased slightly”.
